Reference: US11628228B2, “99mTc-labeled isonitrile-containing glucose derivative and preparation method and use thereof” (Beijing Shihong Pharmaceutical Research Center, priority 2017, dated 2023)

Experiments:
[1] = Determination of the lipid-water partition coefficient (n-octanol/PBS); type: physicochemical
Procedure: One hundred μL of the labeled substance solution (50 μCi) diluted with normal saline is placed into a 2 mL centrifuge tube, and then 800 μL of n-octanol and 700 μL of PBS are added to the centrifuge tube, which is subsequently covered with a cap. The centrifuge tube is vortexed for 3 minutes (2500 r/minute), allowed to stand until the solution is layered, and centrifuged in a centrifuge for 3 minutes (3000 r/minute). Three samples of the upper organic phase and three samples of the lower aqueous phase are taken, each 100 μL, and detected in a γ-counter for the radioactive counts of the organic and aqueous phases, respectively.

S180-bearing mice = test: Bio-distribution in tumor-bearing mice; type: in vivo; settings: for Blood uptake / Bone uptake / Heart uptake / Kidney uptake / Liver uptake / Lung uptake / Muscle uptake / Small intestine uptake / Spleen uptake / Stomach uptake / Tumor uptake / Tumor/blood ratio / Tumor/muscle ratio: S180-bearing mice, tail vein; for Tumor/liver ratio: tumor-bearing mice, 0.5 hour after injection
Procedure: The labeled solution (0.1 mL, 74 KBq) is injected into mice through the tail vein, and the injection time is recorded. Then the mice were killed by cervical dislocation at different time phases (30 minutes, 60 minutes, and 120 minutes), five mice for each time phase, and the organs of interest such as heart, liver, lung, kidney, spleen, stomach, muscle, blood and tumor are taken out after dissection, and measured with a γ-counter for the radioactive count of each organ. The uptake value of each organ is obtained by calculation based on the mass of the organ (with % ID/g as the unit).

tumor-bearing mice = settings: 0.5 hour after injection, literature; cited from earlier work

O=C(CCCC[N+]#[C][99Tc-5]([C]#[N+]CCCCC(=O)NC1C(O)OC(CO)C(O)C1O)([C]#[N+]CCCCC(=O)NC1C(O)OC(CO)C(O)C1O)([C]#[N+]CCCCC(=O)NC1C(O)OC(CO)C(O)C1O)([C]#[N+]CCCCC(=O)NC1C(O)OC(CO)C(O)C1O)[C]#[N+]CCCCC(=O)NC1C(O)OC(CO)C(O)C1O)NC1C(O)OC(CO)C(O)C1O (stereo not drawn) [[^99mTc-(CN4DG)6]^+]
Log P (lipid-water partition coefficient) [1]: −3.84±0.06
Blood uptake (S180-bearing mice; 30 min): 1.80 ± 0.53 % ID/g
Bone uptake (S180-bearing mice; 30 min): 0.73 ± 0.23 % ID/g
Heart uptake (S180-bearing mice; 30 min): 0.70 ± 0.18 % ID/g
Kidney uptake (S180-bearing mice; 30 min): 4.93 ± 1.11 % ID/g
Liver uptake (S180-bearing mice; 30 min): 0.66 ± 0.13 % ID/g
Lung uptake (S180-bearing mice; 30 min): 1.75 ± 0.49 % ID/g
Muscle uptake (S180-bearing mice; 30 min): 0.57 ± 0.18 % ID/g
Small intestine uptake (S180-bearing mice; 30 min): 1.06 ± 0.33 % ID/g
Spleen uptake (S180-bearing mice; 30 min): 0.53 ± 0.12 % ID/g
Stomach uptake (S180-bearing mice; 30 min): 0.81 ± 0.33 % ID/g
Tumor uptake (S180-bearing mice; 30 min): 1.72 ± 0.30 % ID/g
Tumor/blood ratio (S180-bearing mice; 30 min): 0.95
Tumor/muscle ratio (S180-bearing mice; 30 min): 3.01
Blood uptake (S180-bearing mice; 60 min): 0.30 ± 0.13 % ID/g
Bone uptake (S180-bearing mice; 60 min): 0.19 ± 0.04 % ID/g
Heart uptake (S180-bearing mice; 60 min): 0.22 ± 0.08 % ID/g
Kidney uptake (S180-bearing mice; 60 min): 1.57 ± 0.27 % ID/g
Liver uptake (S180-bearing mice; 60 min): 0.28 ± 0.06 % ID/g
Lung uptake (S180-bearing mice; 60 min): 0.40 ± 0.11 % ID/g
Muscle uptake (S180-bearing mice; 60 min): 0.27 ± 0.17 % ID/g
Small intestine uptake (S180-bearing mice; 60 min): 0.25 ± 0.11 % ID/g
Spleen uptake (S180-bearing mice; 60 min): 0.21 ± 0.04 % ID/g
Stomach uptake (S180-bearing mice; 60 min): 0.23 ± 0.07 % ID/g
Tumor uptake (S180-bearing mice; 60 min): 0.88 ± 0.09 % ID/g
Tumor/blood ratio (S180-bearing mice; 60 min): 2.93
Tumor/muscle ratio (S180-bearing mice; 60 min): 3.26
Blood uptake (S180-bearing mice; 120 min): 0.03 ± 0.01 % ID/g
Bone uptake (S180-bearing mice; 120 min): 0.13 ± 0.09 % ID/g
Heart uptake (S180-bearing mice; 120 min): 0.10 ± 0.04 % ID/g
Kidney uptake (S180-bearing mice; 120 min): 1.24 ± 0.53 % ID/g
Liver uptake (S180-bearing mice; 120 min): 0.17 ± 0.03 % ID/g
Lung uptake (S180-bearing mice; 120 min): 0.13 ± 0.02 % ID/g
Muscle uptake (S180-bearing mice; 120 min): 0.15 ± 0.07 % ID/g
Small intestine uptake (S180-bearing mice; 120 min): 0.36 ± 0.21 % ID/g
Spleen uptake (S180-bearing mice; 120 min): 0.11 ± 0.02 % ID/g
Stomach uptake (S180-bearing mice; 120 min): 0.08 ± 0.01 % ID/g
Tumor uptake (S180-bearing mice; 120 min): 0.45 ± 0.17 % ID/g
Tumor/blood ratio (S180-bearing mice; 120 min): 15.00
Tumor/muscle ratio (S180-bearing mice; 120 min): 3.00
Tumor/liver ratio (S180-bearing mice): 2.60

O=C(CC[N+]#[C][99Tc-5]([C]#[N+]CCC(=O)NC1C(O)OC(CO)C(O)C1O)([C]#[N+]CCC(=O)NC1C(O)OC(CO)C(O)C1O)([C]#[N+]CCC(=O)NC1C(O)OC(CO)C(O)C1O)([C]#[N+]CCC(=O)NC1C(O)OC(CO)C(O)C1O)[C]#[N+]CCC(=O)NC1C(O)OC(CO)C(O)C1O)NC1C(O)OC(CO)C(O)C1O (stereo not drawn) [[^99mTc-(CN2DG)6]^+]
Log P (lipid-water partition coefficient) [1]: −4.26±0.12
Blood uptake (S180-bearing mice; 30 min): 0.94 ± 0.18 % ID/g
Bone uptake (S180-bearing mice; 30 min): 0.32 ± 0.07 % ID/g
Heart uptake (S180-bearing mice; 30 min): 0.34 ± 0.06 % ID/g
Kidney uptake (S180-bearing mice; 30 min): 3.11 ± 1.04 % ID/g
Liver uptake (S180-bearing mice; 30 min): 0.35 ± 0.06 % ID/g
Lung uptake (S180-bearing mice; 30 min): 0.94 ± 0.18 % ID/g
Muscle uptake (S180-bearing mice; 30 min): 0.27 ± 0.07 % ID/g
Small intestine uptake (S180-bearing mice; 30 min): 0.44 ± 0.16 % ID/g
Spleen uptake (S180-bearing mice; 30 min): 0.31 ± 0.09 % ID/g
Stomach uptake (S180-bearing mice; 30 min): 0.38 ± 0.15 % ID/g
Tumor uptake (S180-bearing mice; 30 min): 1.09 ± 0.23 % ID/g
Tumor/blood ratio (S180-bearing mice; 30 min): 1.16
Tumor/muscle ratio (S180-bearing mice; 30 min): 4.04
Blood uptake (S180-bearing mice; 60 min): 0.20 ± 0.05 % ID/g
Bone uptake (S180-bearing mice; 60 min): 0.10 ± 0.02 % ID/g
Heart uptake (S180-bearing mice; 60 min): 0.12 ± 0.02 % ID/g
Kidney uptake (S180-bearing mice; 60 min): 1.17 ± 0.27 % ID/g
Liver uptake (S180-bearing mice; 60 min): 0.18 ± 0.02 % ID/g
Lung uptake (S180-bearing mice; 60 min): 0.26 ± 0.06 % ID/g
Muscle uptake (S180-bearing mice; 60 min): 0.08 ± 0.00 % ID/g
Small intestine uptake (S180-bearing mice; 60 min): 0.19 ± 0.03 % ID/g
Spleen uptake (S180-bearing mice; 60 min): 0.13 ± 0.02 % ID/g
Stomach uptake (S180-bearing mice; 60 min): 0.19 ± 0.07 % ID/g
Tumor uptake (S180-bearing mice; 60 min): 0.50 ± 0.07 % ID/g
Tumor/blood ratio (S180-bearing mice; 60 min): 2.78
Tumor/muscle ratio (S180-bearing mice; 60 min): 6.25
Blood uptake (S180-bearing mice; 120 min): 0.01 ± 0.00 % ID/g
Bone uptake (S180-bearing mice; 120 min): 0.05 ± 0.02 % ID/g
Heart uptake (S180-bearing mice; 120 min): 0.05 ± 0.02 % ID/g
Kidney uptake (S180-bearing mice; 120 min): 0.68 ± 0.11 % ID/g
Liver uptake (S180-bearing mice; 120 min): 0.09 ± 0.01 % ID/g
Lung uptake (S180-bearing mice; 120 min): 0.09 ± 0.04 % ID/g
Muscle uptake (S180-bearing mice; 120 min): 0.04 ± 0.01 % ID/g
Small intestine uptake (S180-bearing mice; 120 min): 0.12 ± 0.02 % ID/g
Spleen uptake (S180-bearing mice; 120 min): 0.07 ± 0.01 % ID/g
Stomach uptake (S180-bearing mice; 120 min): 0.15 ± 0.06 % ID/g
Tumor uptake (S180-bearing mice; 120 min): 0.25 ± 0.05 % ID/g
Tumor/blood ratio (S180-bearing mice; 120 min): 25.00
Tumor/muscle ratio (S180-bearing mice; 120 min): 6.25
Tumor/liver ratio (S180-bearing mice): 3.11

O=C(NC1C(O)O[C@H](CO)[C@@H](O)[C@@H]1O)C1C[S][Tc]23(=[O])[S]C[C@@H](C(=O)NC4C(O)O[C@H](CO)[C@@H](O)[C@@H]4O)[N]2CC[N]13 (stereo partly drawn) [^99mTc-ECDG]
Blood uptake (tumor-bearing mice): 1.61 ± 0.39 % ID/g
Kidney uptake (tumor-bearing mice): 6.73 ± 1.84 % ID/g
Liver uptake (tumor-bearing mice): 5.67 ± 2.08 % ID/g
Muscle uptake (tumor-bearing mice): 0.26 ± 0.07 % ID/g
Tumor uptake (tumor-bearing mice): 0.79 ± 0.16 % ID/g
Tumor/blood ratio (tumor-bearing mice): 0.49
Tumor/liver ratio (tumor-bearing mice): 0.14
Tumor/muscle ratio (tumor-bearing mice): 3.04
